Data from patent publication US20260347373A1, “HETEROCYCLIC COMPOUNDS, COMPOSITIONS THEREOF, AND METHODS OF TREATMENT THEREWITH” (BeOne Medicines I GmbH, priority 2023, published 2026).
Counter-ions that a name gives are not always drawn. Like-named read-outs stand apart in the source and are kept apart here.

What was measured:
KRAS G12D = KRAS G12D (Homo sapiens, UniProt P01116, G12D); test: KRAS G12D Probe Displacement Assay (TR-FRET, GDP-loaded); type: binding
From the text: (§1) The synthetic routes of probe 1 and 2, which have been disclosed in PCT/CN2022/070676, are hereby incorporated herein.

WT KRAS = WT KRAS (Homo sapiens, UniProt P01116); test: KRAS WT Probe Displacement Assay (TR-FRET, GDP-loaded); type: binding
WT KRAS, sequence (P01116 1-188 isoform P01116-2): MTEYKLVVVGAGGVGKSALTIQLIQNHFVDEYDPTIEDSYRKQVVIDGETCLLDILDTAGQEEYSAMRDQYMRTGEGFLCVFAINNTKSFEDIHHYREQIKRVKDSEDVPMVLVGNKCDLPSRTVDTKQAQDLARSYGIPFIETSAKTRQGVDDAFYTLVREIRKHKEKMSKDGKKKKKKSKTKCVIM
From the text: as §1

[1] = KRAS G12D, read-out: KRAS^G12D Probe Displacement Assay IC50
[2] = KRAS WT, read-out: KRAS^WT Probe Displacement Assay IC50
[3] = KRAS^G12D Probe Displacement Assay IC50, KRAS G12D
[4] = KRAS^WT Probe Displacement Assay IC50, KRAS WT

KRAS G12D, sequence (P01116 1-188 isoform P01116-2 G12D): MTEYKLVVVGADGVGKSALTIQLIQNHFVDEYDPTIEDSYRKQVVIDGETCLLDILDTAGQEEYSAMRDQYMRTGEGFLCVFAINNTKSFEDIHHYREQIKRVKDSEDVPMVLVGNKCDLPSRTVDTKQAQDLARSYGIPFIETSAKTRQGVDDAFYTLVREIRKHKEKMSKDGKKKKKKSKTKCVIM

## Cc1cc(N)cc(-c2nc3c4c(nc(OCC5(CN6CC7CC(C6)O7)CC5)nc4c2F)N2C[C@H]4CC[C@H](N4)[C@H]2CCO3)c1C(F)(F)F [Example 105, 3-((6aR,7S,10R)-13-((1-((6-oxa-3-azabicyclo [3.1.1]heptan-3-yl)methyl)cyclopropyl)methoxy)-1-fluoro-5,6,6a,7,8,9,10,11-octahydro-4-oxa-3,11a,12,14,15-pentaaza-7,10-methanocyclohepta [4,5]cycloocta [1,2,3-de]naphthalen-2-yl)-5-methyl-4-(trifluoromethyl)aniline]
KRAS G12D; [1]
  IC50: < 0.3 nM
WT KRAS; [2]
  IC50: 0.3 to 3 nM

## Cc1cc(N)cc(-c2nc3c4c(nc(OCC5(CN6CCC(=C(F)F)C6)CC5)nc4c2F)N2C[C@H]4CC[C@H](N4)[C@H]2CCO3)c1C(F)(F)F [Example 149, 3-((6aR,7S,10R)-13-((1-((3-(difluoromethylene)pyrrolidin-1-yl)methyl)cyclopropyl)methoxy)-1-fluoro-5,6,6a,7,8,9,10,11-octahydro-4-oxa-3,11a,12,14,15-pentaaza-7,10-methano-cyclohepta[4,5]cycloocta [1,2,3-de]naphthalen-2-yl)-5-methyl-4-(trifluoromethyl) aniline]
KRAS G12D; [3]
  IC50: < 0.3 nM
WT KRAS; [4]
  IC50: 3 to 1000 nM

## Cc1cc(N)cc(-c2nc3c4c(nc(OC[C@@]56C[C@H](F)CN5C[C@H](F)C6)nc4c2F)N2C[C@H]4CC[C@H](N4)[C@H]2CCO3)c1C(F)(F)F [Example 213, 3-((6aR,7S,10R)-13-(((2R,6S,7as)-2,6-difluorotetrahydro-1H-pyrrolizin-7a(5H)-yl)methoxy)-1-fluoro-5,6,6a,7,8,9,10,11-octahydro-4-oxa-3,11a,12,14,15-pentaaza-7,10-methanocyclohepta[4,5]cycloocta[1,2,3-de]naphthalen-2-yl)-5-methyl-4-(trifluoromethyl)aniline]
KRAS G12D; [1]
  IC50: 0.3 to 3 nM
WT KRAS; [2]
  IC50: 3 to 1000 nM

## Cc1cc(N)cc(-c2nc3c4c(nc(OCC5(CN6CCC(C)(O)C6)CC5)nc4c2F)N2C[C@H]4CC[C@H](N4)[C@H]2CCO3)c1C(F)(F)F (stereo partly drawn) [Example 93, 1-((1-((((6aR,7S, 10R)-2-(5-amino-3-methyl-2-(trifluoromethyl)phenyl)-1-fluoro-5,6,6a,7,8,9,10,11-octahydro-4-oxa-3,11a,12,14,15-pentaaza-7,10-methanocyclohepta [4,5]cycloocta[1,2,3-de]naphthalen-13-yl)oxy)methyl)cyclopropyl)methyl)-3-methylpyrrolidin-3-ol]
KRAS G12D; [1]
  IC50: < 0.3 nM
WT KRAS; [2]
  IC50: 3 to 1000 nM

## Cc1cc(N)cc(-c2nc3c4c(nc(OCC5(CN6CCOC[C@H]6C)CC5)nc4c2F)N2C[C@H]4CC[C@H](N4)[C@H]2CCO3)c1C(F)(F)F [Example 163, 3-((6aR,7S,10R)-1-fluoro-13-((1-(((R)-3-methylmorpholino)methyl)cyclopropyl)methoxy)-5,6,6a,7,8,9,10,11-octahydro-4-oxa-3,11a,12,14,15-pentaaza-7,10-methanocyclohepta[4,5]cycloocta[1,2,3-de]naphthalen-2-yl)-5-methyl-4-(trifluoromethyl)aniline]
KRAS G12D; [1]
  IC50: < 0.3 nM
WT KRAS; [2]
  IC50: 3 to 1000 nM

## Cc1cc(N)cc(-c2nc3c4c(nc(OCC5(CN6CCC(F)CC6)CC5)nc4c2F)N2C[C@H]4CC[C@H](N4)[C@H]2CCO3)c1C(F)(F)F [Example 66, 3-((6aR,7S,10R)-1-fluoro-13-((1-((4-fluoropiperidin-1-yl)methyl)cyclopropyl)methoxy)-5,6,6a,7,8,9,10,11-octahydro-4-oxa-3,11a,12,14,15-pentaaza-7,10-methanocyclohepta[4,5]cycloocta [1,2,3-de]naphthalen-2-yl)-5-methyl-4-(trifluoromethyl)aniline]
KRAS G12D; [1]
  IC50: < 0.3 nM
WT KRAS; [2]
  IC50: 3 to 1000 nM

## COC1CN(CC2(COc3nc4c5c(nc(-c6cc(N)cc(C)c6C(F)(F)F)c(F)c5n3)OCC[C@@H]3[C@@H]5CC[C@H](CN43)N5)CC2(F)F)C1 (single isomer, unassigned) [Example 20]
KRAS G12D; [3]
  IC50: < 0.3 nM
WT KRAS; [4]
  IC50: 3 to 1000 nM

## Cc1cc(N)cc(-c2nc3c4c(nc(OCC5(CN6CC=C(F)CC6)CC5)nc4c2F)N2C[C@H]4CC[C@H](N4)[C@H]2CCO3)c1C(F)(F)F [Example 178, 3-((6aR,7S,10R)-1-fluoro-13-((1-((4-fluoro-3,6-dihydropyridin-1(2H)-yl)methyl)cyclopropyl)methoxy)-5,6,6a,7,8,9,10,11-octahydro-4-oxa-3,11a,12,14,15-pentaaza-7,10-methanocyclohepta[4,5]cycloocta[1,2,3-de]naphthalen-2-yl)-5-methyl-4-(trifluoromethyl)aniline]
KRAS G12D; [1]
  IC50: < 0.3 nM
WT KRAS; [2]
  IC50: 3 to 1000 nM

## CN(C)CC1(COc2nc3c4c(nc(-c5cc(N)cc(Cl)c5C(F)(F)F)c(F)c4n2)OCC[C@@H]2[C@@H]4CC[C@H](CN32)N4)CC1F (single isomer, unassigned) [Example 52]
KRAS G12D; [1]
  IC50: < 0.3 nM
WT KRAS; [2]
  IC50: 0.3 to 3 nM

## Cc1nc(N)cc(-c2nc3c4c(nc(OC[C@]5(CN(C)C)CC5(F)F)nc4c2F)N2C[C@H]4CC[C@H](N4)[C@H]2CCO3)c1C(F)(F)F [Example 48, 4-((6aR,7S,10R)-13-(((R)-1-((dimethylamino)methyl)-2,2-difluorocyclopropyl)methoxy)-1-fluoro-5,6,6a,7,8,9,10,11-octahydro-4-oxa-3,11a,12,14,15-pentaaza-7,10-methanocyclohepta[4,5]cycloocta [1,2,3-de]naphthalen-2-yl)-6-methyl-5-(trifluoromethyl)pyridin-2-amine]
KRAS G12D; [1]
  IC50: < 0.3 nM
WT KRAS; [2]
  IC50: 3 to 1000 nM

## Cc1cc(N)cc(-c2nc3c4c(nc(OCC5(CN6C[C@@H]7C[C@H]6CO7)CC5)nc4c2F)N2C[C@H]4CC[C@H](N4)[C@H]2CCO3)c1C(F)(F)F [Example 68, 3-((6aR,7S,10R)-13-((1-(((1S,4S)-2-oxa-5-azabicyclo[2.2.1]heptan-5-yl)methyl)cyclopropyl)methoxy)-1-fluoro-5,6,6a,7,8,9,10,11-octahydro-4-oxa-3,11a,12,14,15-pentaaza-7,10-methanocyclohepta[4,5]cycloocta [1,2,3-de]naphthalen-2-yl)-5-methyl-4-(trifluoromethyl)aniline]
KRAS G12D; [1]
  IC50: < 0.3 nM
WT KRAS; [2]
  IC50: 3 to 1000 nM

## Cc1cc(N)cc(-c2nc3c4c(nc(OCC5(CN(C)C)CC5F)nc4c2F)N2C[C@H]4CC[C@H](N4)[C@H]2CCO3)c1C(F)(F)F (single isomer, unassigned) [Example 136]
KRAS G12D; [3]
  IC50: < 0.3 nM
WT KRAS; [4]
  IC50: 3 to 1000 nM

## Cc1cc(N)cc(-c2nc3c4c(nc(OCC5(CN6C7COCC6C7)CC5)nc4c2F)N2C[C@H]4CC[C@H](N4)[C@H]2CCO3)c1C(F)(F)F [Example 104, 3-((6aR,7S,10R)-13-((1-((3-oxa-6-azabicyclo[3.1.1]heptan-6-yl)methyl)cyclopropyl)methoxy)-1-fluoro-5,6,6a,7,8,9,10,11-octahydro-4-oxa-3,11a,12,14,15-pentaaza-7,10-methanocyclohepta [4,5]cycloocta [1,2,3-de]naphthalen-2-yl)-5-methyl-4-(trifluoromethyl) aniline formate]
KRAS G12D; [3]
  IC50: < 0.3 nM
WT KRAS; [4]
  IC50: 3 to 1000 nM

## Cc1cc(N)cc(-c2nc3c4c(nc(OCC5(CN6CCOC[C@@H]6C)CC5)nc4c2F)N2C[C@H]4CC[C@H](N4)[C@H]2CCO3)c1C(F)(F)F [Example 164, 3-((6aR,7S,10R)-1-fluoro-13-((1-(((S)-3-methylmorpholino)methyl)cyclopropyl)methoxy)-5,6,6a,7,8,9,10,11-octahydro-4-oxa-3,11a,12,14,15-pentaaza-7,10-methanocyclohepta[4,5]cycloocta[1,2,3-de]naphthalen-2-yl)-5-methyl-4-(trifluoromethyl)aniline]
KRAS G12D; [1]
  IC50: < 0.3 nM
WT KRAS; [2]
  IC50: 3 to 1000 nM

## Cc1cc(N)cc(-c2nc3c4c(nc(OCC5(CN6CCN(C7COC7)CC6)CC5)nc4c2F)N2C[C@H]4CC[C@H](N4)[C@H]2CCO3)c1C(F)(F)F [Example 191, 3-((6aR,7S,10R)-1-fluoro-13-((1-((4-(oxetan-3-yl)piperazin-1-yl)methyl)cyclopropyl)methoxy)-5,6,6a,7,8,9,10,11-octahydro-4-oxa-3,11a,12,14,15-pentaaza-7,10-methanocyclohepta[4,5]cycloocta[1,2,3-de]naphthalen-2-yl)-5-methyl-4-(trifluoromethyl)aniline]
KRAS G12D; [1]
  IC50: < 0.3 nM
WT KRAS; [2]
  IC50: 3 to 1000 nM

## Cc1cc(N)cc(-c2nc3c4c(nc(OCC5(CN6CCC(F)(F)C6)CC5)nc4c2F)N2C[C@H]4CC[C@H](N4)[C@H]2CCO3)c1C(F)(F)F [Example 89, 3-((6aR,7S,10R)-13-((1-((3,3-difluoropyrrolidin-1-yl)methyl)cyclopropyl)methoxy)-1-fluoro-5,6,6a,7,8,9,10,11-octahydro-4-oxa-3,11a,12,14,15-pentaaza-7,10-methanocyclohepta [4,5]cycloocta [1,2,3-de]naphthalen-2-yl)-5-methyl-4-(trifluoromethyl) aniline]
KRAS G12D; [3]
  IC50: < 0.3 nM
WT KRAS; [4]
  IC50: 3 to 1000 nM

## Cc1cc(N)cc(-c2nc3c4c(nc(O[C@@H](C)[C@@H]5CCCN5C)nc4c2F)N2C[C@H]4CC[C@H](N4)[C@H]2CCO3)c1C(F)(F)F [Example 37, 3-((6aR,7S,10R)-1-fluoro-13-((S)-1-((S)-1-methylpyrrolidin-2-yl)ethoxy)-5,6,6a,7,8,9,10,11-octahydro-4-oxa-3,11a,12,14,15-pentaaza-7,10-methanocyclohepta[4,5]cycloocta [1,2,3-de]naphthalen-2-yl)-5-methyl-4-(trifluoromethyl)aniline]
KRAS G12D; [1]
  IC50: < 0.3 nM
WT KRAS; [2]
  IC50: 3 to 1000 nM

## Cc1cc(N)cc(-c2nc3c4c(nc(OCC5(CN6CC=CC6CO)CC5)nc4c2F)N2C[C@H]4CC[C@H](N4)[C@H]2CCO3)c1C(F)(F)F (stereo partly drawn) [Example 161, (1-((1-((((6aR,7S,10R)-2-(5-amino-3-methyl-2-(trifluoromethyl)phenyl)-1-fluoro-5,6,6a,7,8,9,10,11-octahydro-4-oxa-3,11a,12,14,15-pentaaza-7,10-methanocyclohepta[4,5]cycloocta[1,2,3-de]naphthalen-13-yl)oxy)methyl)cyclopropyl)methyl)-2,5-dihydro-1H-pyrrol-2-yl)methanol]
KRAS G12D; [1]
  IC50: < 0.3 nM
WT KRAS; [2]
  IC50: 3 to 1000 nM
